In ChEMBL document CHEMBL1144113, “Methanol adduct of puupehenone, a biologically active derivative from the marine sponge Hyrtios species” (J Nat Prod, 1999):
≈ marks a conversion by molar mass, not a printed value.

Assays:
[1] = test system: KB; test: Cytotoxicity against human KB cells by neutral red assay; type: functional, cell-based
[2] = test system: Plasmodium falciparum; test: Antimalarial activity against chloroquine-sensitive Plasmodium falciparum F32 in human erythrocytes after 48 hrs by [G-3H]hypoxanthine uptake; type: functional, organism-based; details: F32, 48 h
[3] = test system: Staphylococcus aureus; test: Antibacterial activity against Staphylococcus aureus at 1 ug/disk after 24 hrs by paper disk method; type: functional; details: read-out: IZ
[4] = test system: Candida tropicalis; test: Antifungal activity against Candida tropicalis at 50 ug/disk after 48 hrs by paper disk method; type: functional; details: read-out: IZ
[5] = test system: Plasmodium falciparum; test: Antimalarial activity against chloroquine-resistant Plasmodium falciparum PFB in human erythrocytes after 48 hrs by [G-3H]hypoxanthine uptake; type: functional, organism-based
[6] = test system: Plasmodium falciparum; test: Antimalarial activity against chloroquine-resistant Plasmodium falciparum FcB1 in human erythrocytes after 48 hrs by [G-3H]hypoxanthine uptake; type: functional, organism-based; details: FcB1, 48 h
[7] = Toxicity against Artemia salina; type: organism-based; details: in vivo

| Structure (SMILES) | IC50 [1] | IC50 [2] | zone of inhibition at 1 µg/disc [3] | zone of inhibition at 50 µg/disc [4] | IC50 [5] | IC50 [6] | LC50 [7] |
| --- | --- | --- | --- | --- | --- | --- | --- |
| CO[C@@H]1c2cc(O)c(O)cc2O[C@@]2(C)CC[C@H]3C(C)(C)CCC[C@]3(C)[C@@H]12 | 6 µg/mL (≈ 16.6 µM) | 0.4 µg/mL (≈ 1.11 µM) | 7 mm | 9 mm | 1.2 µg/mL (≈ 3.33 µM) | 1.4 µg/mL (≈ 3.88 µM) | – |
| CO[C@@H]1c2cc(OC(C)=O)c(OC(C)=O)cc2O[C@@]2(C)CC[C@H]3C(C)(C)CCC[C@]3(C)[C@@H]12 | – | 0.6 µg/mL (≈ 1.35 µM) | – | – | 1.2 µg/mL (≈ 2.7 µM) | 1.4 µg/mL (≈ 3.15 µM) | – |
| CC1(C)CCC[C@]2(C)[C@H]3C=C4C=C(O)C(=O)C=C4O[C@@]3(C)CC[C@@H]12 [PUUPEHENONE] | 0.5 µg/mL (≈ 1.52 µM) | 0.6 µg/mL (≈ 1.83 µM) | – | – | 1.5 µg/mL (≈ 4.57 µM) | 2.1 µg/mL (≈ 6.39 µM) | 20 µg/mL (≈ 60.9 µM) |
